From PMC8604796 (Computers in Biology and Medicine, 2021)
Like-named read-outs stand apart in the source and are kept apart here. Numbered stars: 1 amine (or outer) side, 2 acyl side, 3 side chain; on linkers, the order of the positions; unused ones are H or OH. Bridge positions count the residues as written; N and C are the ends. Square brackets hold non-standard residues; d marks the D form. Peptide text beside a SMILES is read from it. * marks the point of attachment. pTerphenylCO(4''-OnC5H11) = CCCCCOc1ccc(-c2ccc(-c3ccc(C(=O)*)cc3)cc2)cc1; Orn(4R-OH,5R-OH) = O=C([C@H](C[C@@H](O)[C@@H](O)N[*:3])N[*:1])[*:2]; hTyr(3S-OH,4S-OH) = N[C@H](C(=O)O)[C@H](O)[C@@H](O)c1ccc(O)cc1; Pro(3S-OH,4S-Me) = C[C@H]1CN[C@H](C(=O)O)[C@H]1O; Hyp = O=C(O)[C@@H]1C[C@@H](O)CN1

Key:
SARS-CoV-2 virus = conditions: read-out: IC50, in-vitro antiviral activity against the SARS-CoV-2 virus; cited from earlier work
SARS-CoV-2 PLpro = SARS-CoV-2 PLpro (Severe acute respiratory syndrome coronavirus 2, UniProt P0DTD1); test: biochemical

## CCCCCOc1ccc(-c2ccc(-c3ccc(C(=O)N[C@H]4C[C@@H](O)[C@@H](O)NC(=O)[C@@H]5[C@@H](O)[C@@H](C)CN5C(=O)[C@H]([C@@H](C)O)NC(=O)[C@H]([C@H](O)[C@@H](O)c5ccc(O)cc5)NC(=O)[C@@H]5C[C@@H](O)CN5C(=O)[C@H]([C@@H](C)O)NC4=O)cc3)cc2)cc1 [Anidulafungin] ({pTerphenylCO(4''-OnC5H11)}-[Orn(4R-OH,5R-OH)]T[Hyp][hTyr(3S-OH,4S-OH)]T[Pro(3S-OH,4S-Me)]; lactam 1-C)
SARS-CoV-2 virus
  IC50: 4.64 µM
SARS-CoV-2 PLpro; Ubiquitin-Rhodamine 110 Gly fluorescence intensity assay
  inhibitory activity against PLpro (in words): low inhibitory activity

## Cc1cc2nc3c(=O)[nH]c(=O)nc-3n(C[C@H](O)[C@H](O)[C@H](O)COP(=O)(O)OP(=O)(O)OC[C@H]3O[C@@H](n4cnc5c(N)ncnc54)[C@H](O)[C@@H]3O)c2cc1C [FAD disodium]
SARS-CoV-2 PLpro; read-out: IC50 against SARS-CoV-2 PLpro
  IC50: 12.4 µM

## CC(C)(C)[C@@H]1NC(=O)O[C@@H]2CCC[C@H]2OC/C=C/C(F)(F)c2nc3ccccc3nc2O[C@@H]2C[C@@H](C(=O)N[C@]3(C(=O)NS(=O)(=O)C4(C)CC4)C[C@H]3C(F)F)N(C2)C1=O [Glecaprevir]
SARS-CoV-2 PLpro
  IC50: 36.8 µM

## CO[C@H]1/C=C/O[C@@]2(C)Oc3c(C)c(O)c4c(O)c(c(/C=N/N5CCN(C6CCCC6)CC5)c(O)c4c3C2=O)NC(=O)/C(C)=C\C=C\[C@H](C)[C@H](O)[C@@H](C)[C@@H](O)[C@@H](C)[C@H](OC(C)=O)[C@@H]1C [Rifapentine]
SARS-CoV-2 PLpro
  IC50: 15.2 µM
